Laboratory results: US10669252B2, “Benzazepine derivative, preparation method, pharmaceutical composition and use thereof” (SHANGHAI DE NOVO PHARMATECH CO., LTD., priority 2016, dated 2020)

What was measured:
[1] = molecular target: T1, TLR7 (Homo sapiens, UniProt Q9NYK1); assay: TLR7 cell based assay (HEK-BLUE-hTLR7, SEAP reporter linked to NF-κB activation); conditions: HEK-BLUE-hTLR7 cells, 24 hours treatment, SEAP/QUANTI-Blue readout
T1 construct: host or cells: HEK293 (HEK-BLUE-hTLR7)
T1 sequence (Q9NYK1 27-1049): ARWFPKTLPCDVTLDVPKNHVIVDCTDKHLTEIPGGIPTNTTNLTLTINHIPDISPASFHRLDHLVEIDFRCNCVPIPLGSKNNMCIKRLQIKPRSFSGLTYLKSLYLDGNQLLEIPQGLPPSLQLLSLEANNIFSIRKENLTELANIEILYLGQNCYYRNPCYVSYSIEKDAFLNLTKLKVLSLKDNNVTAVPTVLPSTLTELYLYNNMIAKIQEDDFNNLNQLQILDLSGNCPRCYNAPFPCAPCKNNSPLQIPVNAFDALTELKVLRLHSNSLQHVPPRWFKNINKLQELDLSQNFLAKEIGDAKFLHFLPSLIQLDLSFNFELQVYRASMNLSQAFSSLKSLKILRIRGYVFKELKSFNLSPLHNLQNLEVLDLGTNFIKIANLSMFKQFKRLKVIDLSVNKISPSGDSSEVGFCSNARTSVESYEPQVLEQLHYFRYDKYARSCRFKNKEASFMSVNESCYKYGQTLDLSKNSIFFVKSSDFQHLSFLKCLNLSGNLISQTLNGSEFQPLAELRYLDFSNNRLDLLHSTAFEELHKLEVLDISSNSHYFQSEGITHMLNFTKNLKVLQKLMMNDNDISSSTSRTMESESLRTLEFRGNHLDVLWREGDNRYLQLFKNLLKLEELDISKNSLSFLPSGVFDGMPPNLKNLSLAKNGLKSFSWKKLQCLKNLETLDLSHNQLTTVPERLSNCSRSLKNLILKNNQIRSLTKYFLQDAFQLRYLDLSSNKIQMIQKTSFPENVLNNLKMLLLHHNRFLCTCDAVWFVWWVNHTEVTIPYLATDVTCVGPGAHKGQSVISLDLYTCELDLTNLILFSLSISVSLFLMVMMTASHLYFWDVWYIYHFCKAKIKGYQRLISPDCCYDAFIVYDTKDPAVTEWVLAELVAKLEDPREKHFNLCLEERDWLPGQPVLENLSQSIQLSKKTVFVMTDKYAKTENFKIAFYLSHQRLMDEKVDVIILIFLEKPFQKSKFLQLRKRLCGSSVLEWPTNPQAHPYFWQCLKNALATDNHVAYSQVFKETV
Experimental: (§1) In this assay, the bioactivity of compound of formula (I) was measured using a cell based assay. The assay was performed in human embryonic kidney cells (HEK293) expressing TLR7 or other TLR family members such as TLR4, and TLR9 (for selectivity screens). The activity of specific TLR agonists was assessed using the secretory embryonic alkaline phosphatase (SEAP) reporter gene that is linked to NF-κB activation in response to TLR stimulation. The SEAP activity was measured using the Quanti-Blue substrate (InvivoGen) after TLR agonist treatment.
(§2) The detailed experimental method is as follow:
HEK-BLUE-hTLR7 cell line was purchased from InvivoGen. The cells were cultured in Dulbecco's Modified Eagle's Media containing 4.5 g/L […] (Sigma-Aldrich) and 10% FBS. The cells were cultured at 37° C., 95% humidity and 5% CO2.
[…] A known TLR8 agonist was added as positive control and 1 μl of DMSO was added as negative control.
(§3) The cells were prepared as follows. The cells were removed from the incubator and growth medium was discarded. The cells were gently rinsed with pre-warmed 10 ml PBS for a T-150 flask. 12 ml pre-warmed growth medium was added, and the cells were detached by tapping the flask. Cell clumps were dissociated by gently pipetting up and down. The cells were counted. Single cell suspension was prepared at 200,000 cells per ml in growth medium and 200 μl of the cell suspension (40,000 cells per well) were immediately added to each well of the plate. The final DMSO concentration of each well was 0.5%.
The cells were cultured and treated with the compounds at 37° C., 5% CO2 for 24 hours.
(§4) 20 μL of the supernatant of each well were added to 180 μL of QUANTI-Blue, and the plates were incubated at 37° C. for 1.5 hour. Optical density was measured using a spectrophotometer at 650 nm (OD data). Activivation was calculated by using the equation below: Activivation %=(Compound OD mean value−DMSO OD mean value)/(positive control OD mean value−DMSO OD mean value)×100
(§5) The data were analyzed using the GraphPad to get EC50 values and fitting dose response curves of the compounds.

[2] = molecular target: T2, TLR8 (Homo sapiens, UniProt Q9NR97); assay: TLR8 cell based assay (HEK-BLUE-hTLR8, SEAP reporter linked to NF-κB activation); conditions: HEK-BLUE-hTLR8 cells
T2 construct: host or cells: HEK293 (HEK-BLUE-hTLR8)
T2 sequence (Q9NR97 27-1041): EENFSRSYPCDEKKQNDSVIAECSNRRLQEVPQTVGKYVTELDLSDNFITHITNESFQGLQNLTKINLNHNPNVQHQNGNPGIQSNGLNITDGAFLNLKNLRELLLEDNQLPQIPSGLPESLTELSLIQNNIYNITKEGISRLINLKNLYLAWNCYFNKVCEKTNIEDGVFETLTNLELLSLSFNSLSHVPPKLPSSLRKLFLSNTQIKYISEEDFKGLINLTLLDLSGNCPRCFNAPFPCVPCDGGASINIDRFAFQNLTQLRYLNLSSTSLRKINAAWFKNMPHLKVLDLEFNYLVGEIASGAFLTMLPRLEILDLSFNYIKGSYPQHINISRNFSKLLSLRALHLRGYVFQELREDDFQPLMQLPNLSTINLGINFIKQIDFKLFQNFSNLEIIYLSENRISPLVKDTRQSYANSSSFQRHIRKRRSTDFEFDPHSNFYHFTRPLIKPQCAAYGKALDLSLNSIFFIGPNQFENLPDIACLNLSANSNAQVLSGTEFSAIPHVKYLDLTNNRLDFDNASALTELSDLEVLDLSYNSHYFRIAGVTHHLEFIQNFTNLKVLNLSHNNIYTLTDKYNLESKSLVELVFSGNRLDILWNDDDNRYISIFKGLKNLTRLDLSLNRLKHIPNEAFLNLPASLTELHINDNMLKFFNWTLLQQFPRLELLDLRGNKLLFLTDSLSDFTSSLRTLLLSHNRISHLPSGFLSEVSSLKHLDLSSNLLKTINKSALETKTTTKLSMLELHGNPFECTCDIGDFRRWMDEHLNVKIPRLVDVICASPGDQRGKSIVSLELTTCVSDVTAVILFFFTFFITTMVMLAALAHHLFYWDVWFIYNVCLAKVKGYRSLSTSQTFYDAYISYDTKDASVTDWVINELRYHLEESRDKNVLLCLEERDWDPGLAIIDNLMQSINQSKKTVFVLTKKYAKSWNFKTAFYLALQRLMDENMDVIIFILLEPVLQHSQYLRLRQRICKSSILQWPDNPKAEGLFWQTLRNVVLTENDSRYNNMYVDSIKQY
Experimental: as §1, with “Iw as” for “(I) was”, “TLR8” for “TLR7”, “TLR4, TLR7” for “TLR4,”
as §2
HEK-BLUE-hTLR8 cell line was purchased from InvivoGen. The cells were cultured in Dulbecco's Modified Eagle's Media containing 4.5 g/L […] (Sigma-Aldrich) and 10% FBS. The cells were cultured at 37° C., 95% humidity and 5% CO2.
Test concentrations of the compounds ranged from 0.5 nM to 15 μM with 10 points. A known TLR8 agonist was added as positive control and 1 μl of DMSO was added as negative control.
as §3, with “follows:” for “follows.”
The cells were cultured and treated with the compounds at 37° C., 5% CO2 for 24 h.
as §4, §5

[3] = 24 h treatment, SEAP/QUANTI-Blue readout

| EC50 [1] | EC50 [2, 3] | EC50 ([2]; bound stated) | Structure (SMILES) |
| --- | --- | --- | --- |
| > 50000 nM | < 100 nM |  | CCCN(CCC)C(=O)C1=Cc2ccc(-c3ccc4c(=O)n(CCNC(C)=O)ccc4c3)cc2N=C(N)C1 [Compound 1-2-18] |
| > 50000 nM | < 100 nM | < 10 nM | CCCN(CCC)C(=O)C1=Cc2ccc(-c3ccc4c(=O)n(CCS(C)(=O)=O)ncc4c3)cc2N=C(N)C1 [Compound 1-8-5] |
| > 50000 nM | < 100 nM |  | CCCN(CCC)C(=O)C1=Cc2ccc(-c3ccc4c(c3)CCN(CC(C)(C)O)C4=O)cc2N=C(N)C1 [Compound 1-4-2] |
| > 50000 nM | < 100 nM |  | CCCN(CCC)C(=O)C1=Cc2ccc(-c3ccc4c(=O)n(CC(N)=O)ncc4c3)cc2N=C(N)C1 [Compound 1-8-1] |
| > 50000 nM | < 100 nM |  | CCCN(CCC)C(=O)C1=Cc2ccc(-c3ccc4c(=O)n(CC(N)=O)ccc4c3)cc2N=C(N)C1 [Compound 1-2-10] |
| > 50000 nM | 1000 to 10000 nM |  | CCCN(CCC)C(=O)C1=Cc2cc(F)c(-c3ccc4c(=O)n(CC(N)=O)ccc4c3)cc2N=C(N)C1 [Compound 1-11-1] |
| 1000 to 10000 nM | < 100 nM |  | CCCN(CCC)C(=O)C1=Cc2ccc(-c3ccc4c(=O)n(CCn5cccn5)ccc4c3)cc2N=C(N)C1 [Compound 1-2-32] |
| > 50000 nM | < 100 nM |  | CCCN(CCC)C(=O)C1=Cc2c(F)cc(-c3ccc4c(=O)n(CC(N)=O)ccc4c3)cc2N=C(N)C1 [Compound 1-10-1] |
| > 50000 nM | < 100 nM |  | CCCN(CCC)C(=O)C1=Cc2ccc(-c3ccc4c(=O)n(CC(=O)NC)ncc4c3)cc2N=C(N)C1 [Compound 1-8-2] |
| > 50000 nM | < 100 nM |  | CCCN(CCC)C(=O)C1=Cc2ccc(-c3ccc4c(=O)n(Cc5nccn5C)ccc4c3)cc2N=C(N)C1 [Compound 1-2-33] |
| 10000 to 50000 nM | < 100 nM | < 10 nM | CCCN(CCC)C(=O)C1=Cc2ccc(-c3ccc4c(=O)n(Cc5ncccn5)ccc4c3)cc2N=C(N)C1 [Compound 1-2-31] |
| > 50000 nM | < 100 nM |  | CCCN(CCC)C(=O)C1=Cc2ccc(-c3ccc4c(=O)n(CCN)ccc4c3)cc2N=C(N)C1 [Compound 1-2-17] |
| > 50000 nM | 100 to 1000 nM |  | CCCN(CCC)C(=O)C1=Cc2ccc(-c3ccc4c(=O)n(CCS(C)(=O)=O)cnc4c3)cc2N=C(N)C1 [Compound 1-7-2] |
| 10000 to 50000 nM | < 100 nM |  | CCCN(CCC)C(=O)C1=Cc2ccc(-c3ccc4c(=O)n(Cc5nncn5C)ccc4c3)cc2N=C(N)C1 [Compound 1-2-36] |
| > 50000 nM | 100 to 1000 nM |  | CCCN(CCC)C(=O)C1=Cc2ccc(-c3ccc4c(c3)CCN(CCO)C4=O)cc2N=C(N)C1 [Compound 1-4-10] |
| > 50000 nM | < 100 nM |  | CCCN(CCC)C(=O)C1=Cc2ccc(-c3ccc4c(=O)n(CC(C)(C)O)ccc4c3)cc2N=C(N)C1 [Compound 1-2-13] |
| > 50000 nM | < 100 nM |  | CCCN(CCC)C(=O)C1=Cc2ccc(-c3ccc4c(=O)n(CC(C)(C)O)ncc4c3)cc2N=C(N)C1 [Compound 1-8-4] |
| > 50000 nM | < 100 nM |  | CCCN(CCC)C(=O)C1=Cc2ccc(-c3ccc4c(=O)n(CC(C)(C)O)c(C)cc4c3)cc2N=C(N)C1 [Compound 1-2-9] |
| > 50000 nM | < 100 nM |  | CCCN(CCC)C(=O)C1=Cc2ccc(-c3ccc4c(=O)n(CC(N)=O)c(C)cc4c3)cc2N=C(N)C1 [Compound 1-2-16] |
| > 50000 nM | < 100 nM |  | CCCN(CCC)C(=O)C1=Cc2ccc(-c3ccc4c(=O)n(CC(=O)NC)ccc4c3)cc2N=C(N)C1 [Compound 1-2-21] |
| > 50000 nM | < 100 nM |  | CCCN(CCC)C(=O)C1=Cc2ccc(-c3ccc4c(=O)n(CCOC)ccc4c3)cc2N=C(N)C1 [Compound 1-2-14] |
| 10000 to 50000 nM | < 100 nM |  | CCCN(CCC)C(=O)C1=Cc2c(C)cc(-c3ccc4c(=O)n(CCS(C)(=O)=O)ncc4c3)cc2N=C(N)C1 [Compound 2-2-2] |
| > 50000 nM | < 100 nM |  | CCCN(CCC)C(=O)C1=Cc2ccc(-c3ccc4c(=O)n(CCO)cnc4c3)cc2N=C(N)C1 [Compound 1-7-4] |
| 10000 to 50000 nM | < 100 nM |  | CCCN(CCC)C(=O)C1=Cc2ccc(-c3ccc4c(=O)n(Cc5ncco5)ccc4c3)cc2N=C(N)C1 [Compound 1-2-28] |

| Structure (SMILES) | EC50 [1] | EC50 [2, 3] | EC50 ([2]; bound stated) |
| --- | --- | --- | --- |
| CCCN(CCC)C(=O)C1=Cc2ccc(-c3ccc4c(=O)n(CCP(=O)(OCC)OCC)ccc4c3)cc2N=C(N)C1 [Compound 1-2-43] | > 50000 nM | 100 to 1000 nM |  |
